Results on 29 compounds are retold here after patent publication US6437184B1, “Oxime compounds, their use, and intermediates for their production” (Sumitomo Chemical Company, Limited, priority 1997, dated 2002).

What all share (type): in vivo
The subject of assay [1] is Helicoverpa armigera. Nature of the assay: Insecticidal test against Helicoverpa armigera. Particulars: 120 h, 100 ppm water dilution, cotton leaf fragment immersed 10 seconds, third-instar larvae, after 5 days. As for the experimental part:
A cotton leaf fragment (diameter, 5 cm) was immersed for 10 seconds Lin a water dilution (100 ppm) of a test compound formulation obtained according to Formulation Example 1. This fragment was taken out from the dilution, air dried, and placed in a polyethylene cup having a diameter of 5.5 cm. One third-instar larva of Helicoverpa armigera was set free in each cup. Ten larvae were used for each treatment. After 5 days, the mortality of the larvae was determined.

Assay [2] relates to Plutella xylostella. Nature of the assay: Insecticidal test against Plutella xylostella. The following applies: 96 h. As for the experimental part:
To a water dilution (50 ppm) of a test compound formulation obtained according to Formulation Example 1 was added a spreading agent (New RINOU available from Nihon Noyaku K.K.) at a dilution ratio of 3000-fold. The dilution was sprayed over potted cabbages at the four to five leaf stage at a volume of 25 ml per pot. After the treated plants were air dried, ten third-instar larvae of Plutella xylostella were set free on each pot. After 4 days, the mortality was determined.

For assay [3], the system named is Cydia pomonella. Nature of the assay: Insecticidal test against Cydia pomonella. The following applies: 168 h, 100 ppm water dilution, 0.2 ml on surface of artificial diet, eggs just before hatching, after 7 days. The method, then:
A water dilution (100 ppm) of a test compound formulation obtained according to Formulation Example 1 was added dropwise at a volume of 0.2 ml and spread over the surface of an artificial diet having a weight of 3 g, which had been prepared in a 30 ml polyethylene cup. After air drying, placed in the cup was a piece of wax paper (about 2.5 cm square) having about 20 eggs which had been laid by Cydia pomonella and were just before hatching. Four pieces of such wax paper were used for each treatment. After 7 days, the mortality of the larvae was determined.

The test system of assay [4] is Musca domestica. Nature of the assay: Insecticidal test against Musca domestica. Particulars: 24 h. The method, then: In the bottom of a polyethylene cup having a diameter of 5.5 cm was placed a piece of filter paper having the same size. A 200-fold water dilution (500 ppm) of a test compound formulation obtained according to Formulation Example 1 was added dropwise at a volume of 0.7 ml on the filter paper, and about 30 mg of sucrose as a diet was uniformly placed thereon. Ten female adults of houseflies (Musca domestica) were set free in the cup, and the cup was kept covered. After 1 day, the survival of the adults was determined to determine the mortality.

Where [5] appears, read: 50 ppm water dilution sprayed over potted cabbages, 25 ml per pot, third-instar larvae, after 4 days, read-out: mortality.
Where [6] appears, read: 500 ppm water dilution, 0.7 ml on filter paper with sucrose, female adults, after 1 day, read-out: mortality.

Read-outs that look alike come from different tables or passages of the source.

By mortality is commonly meant the share of the test organisms that died. `CCON=Cc1ccc(OCCCOc2c(Cl)cc(OCC=C(Cl)Cl)cc2Cl)cc1` [(288), 4-(3-(2,6-dichloro-4-(3,3-dichloro-2-propenyloxy)phenoxy)propyloxy)benzaldehyde O-ethyloxime] yielded a mortality at 100 µg/mL in assay [1] not below 80%.
Still for that read-out and setting: as for `CC(=NOCCCCOc1c(Cl)cc(OCC=C(Cl)Cl)cc1Cl)C(C)(C)C` [(562), 3,3-dimethyl-2-butanone O-(4-(2,6-dichloro-4-(3,3-dichloro-2-propenyloxy)phenoxy)butyl)oxime], the figure is not below 80%; as for `CCC(C)ON=Cc1ccc(COc2c(Cl)cc(OCC=C(Cl)Cl)cc2Cl)cc1` (centres unmarked) [(329), 4-(2,6-dichloro-4-(3,3-dichloro-2-propenyloxy)phenoxy)methylbenzaldehyde O-sec-butyloxime], not below 80%.
Take `ClC(Cl)=CCON=Cc1ccc(OCCCCOc2c(Cl)cc(OCC=C(Cl)Cl)cc2Cl)cc1` [(285), 4-(4-(2,6-dichloro-4-(3,3-dichloro-2-propenyloxy)phenoxy)butyloxy)benzaldehyde O-(3,3-dichloro-2-propenyl)oxime]: in assay [2] (setting [5]), the mortality at 50 µg/mL was not below 80%.
With `ClC(Cl)=CCON=CCCCCOc1c(Cl)cc(OCC=C(Cl)Cl)cc1Cl` [(17), 5-(2,6-dichloro-4-(3,3-dichloro-2-propenyloxy)phenoxy)pentanal O-(3,3-dichloro-2-propenyl)oxime], in assay [1], the mortality at 100 µg/mL is not below 80%.
Regarding `ClC(Cl)=CCON=Cc1ccc(OCCCOc2c(Cl)cc(OCC=C(Cl)Cl)cc2Cl)cc1` [(283), 4-(3-(2,6-dichloro-4-(3,3-dichloro-2-propenyloxy)phenoxy)propyloxy)benzaldehyde O-(3,3-dichloro-2-propenyl)oxime], the mortality at 50 µg/mL in assay [2] (setting [5]) was not below 80%. The mortality at 100 µg/mL in assay [1] is not below 80%.
For `CCON=C(C)c1ccc(OCCCOc2c(Cl)cc(OCC=C(Cl)Cl)cc2Cl)cc1` [(293), 4′-(3-(2,6-dichloro-4-(3,3-dichloro-2-propenyloxy)phenoxy)propyloxy)acetophenone O-ethyloxime], the mortality at 100 µg/mL in assay [3] and in assay [1] was not below 80% in each case.
The compound `C=CCON=Cc1ccc(COc2c(Cl)cc(OCC=C(Cl)Cl)cc2Cl)cc1` [(312), 4-(2,6-dichloro-4-(3,3-dichloro-2-propenyloxy)phenoxymethyl)benzaldehyde O-(2-propenyl)oxime] registered a mortality at 100 µg/mL in assay [1] not below 80%.
On to `CCON=Cc1cccc(COc2c(Cl)cc(OCC=C(Cl)Cl)cc2Cl)c1` [(378), 3-((2,6-dichloro-4-(3,3-dichloro-2-propenyloxy)phenoxy)methyl)benzaldehyde O-ethyloxime], for which the mortality at 500 µg/mL in assay [4] (setting [6]) is not below 80%. Also, in assay [3], the mortality at 100 µg/mL is not below 80%.
`CC(=NOCCCCOc1c(Cl)cc(OCC=C(Cl)Cl)cc1Cl)c1ccc(C(F)(F)F)cc1` [(531), 4′-(trifluoromethyl)acetophenone O-(4-(2,6-dichloro-4-(3,3-dichloro-2-propenyloxy)phenoxy)butyl)oxime]: the mortality at 100 µg/mL in assay [1] is not below 80%.
Take `CC(C)(C)C=NOCCCCCOc1c(Cl)cc(OCC=C(Cl)Cl)cc1Cl` [(545), trimethylacetaldehyde O-(5-(2,6-dichloro-4-(3,3-dichloro-2-propenyloxy)phenoxy)pentyl)oxime]: the mortality at 500 µg/mL in assay [4] (setting [6]) was not below 80%. This compound returned a mortality at 100 µg/mL in assay [1] not below 80%.
In assay [4], `CC(COCCCCCOc1c(Cl)cc(OCC=C(Cl)Cl)cc1Cl)=NOC(=O)NC(C)(C)C` [(180), 5-(2,6-dichloro-4-(3,3-dichloro-2-propenyloxy)phenoxy)pentyloxyacetone O-(N-tert-butylcarbamoyl)oxime] displayed a mortality at 500 µg/mL not below 80%. In addition, the mortality at 50 µg/mL in assay [2] is not below 80%.
Regarding `CC(C)(C)ON=CCOCCCCCOc1c(Cl)cc(OCC=C(Cl)Cl)cc1Cl` [(14), 5-(2,6-dichloro-4-(3,3-dichloro-2-propenyloxy)phenoxy)pentyloxyacetaldehyde O-tert-butyloxime], the mortality at 100 µg/mL in assay [1] is not below 80%.
Still for that read-out and setting: as for `C=CCON=Cc1ccc(CCOc2c(Cl)cc(OCC=C(Cl)Cl)cc2Cl)cc1` [(357), 4-(2-(2,6-dichloro-4-(3,3-dichloro-2-propenyloxy)phenoxy)ethyl)benzaldehyde O-allyloxime], the figure is not below 80%.
Still for that read-out and setting: the value for `CC(C)(C)ON=Cc1ccc(OCCCOc2c(Cl)cc(OCC=C(Cl)Cl)cc2Cl)cc1` [(291), 4-(3-(2,6-dichloro-4-(3,3-dichloro-2-propenyloxy)phenoxy)propyloxy)benzaldehyde O-t-butyloxime] was not below 80%.
Still for that read-out and setting: the value for `FC(F)(F)c1ccc(C=NOCCCCOc2c(Cl)cc(OCC=C(Cl)Cl)cc2Cl)cc1` [(529), 4-(trifluoromethyl)benzaldehyde O-(4-(2,6-dichloro-4-(3,3-dichloro-2-propenyloxy)phenoxy)butyl)oxime] was not below 80%.
Regarding `C=CCON=Cc1ccc(CCCOc2c(Cl)cc(OCC=C(Cl)Cl)cc2Cl)cc1` [(370), 4-(3-(2,6-dichloro-4-(3,3-dichloro-2-propenyloxy)phenoxy)propyl)benzaldehyde O-allyl oxime], the mortality at 50 µg/mL in assay [2] (setting [5]) is not below 80%.
The same measure, in the same setting: as for `ClC(Cl)=CCON=CCCOc1c(Cl)cc(OCC=C(Cl)Cl)cc1Cl` [(75), 3-(2,6-dichloro-4-(3,3-dichloro-2-propenyloxy)phenoxy)propionaldehyde O-(3,3-dichloro-2-propenyl)oxime], the figure is not below 80%.
Consider `ClC(Cl)=CCOc1cc(Cl)c(OCCCCCON=C2CCOCC2)c(Cl)c1` [(574), tetrahydro-4H-pyran-4-one O-(5-(2,6-dichloro-4-(3,3-dichloro-2-propenyloxy)phenoxy)pentyl)oxime], for which the mortality at 50 µg/mL in assay [2] (setting [5]) is not below 80%. The mortality at 100 µg/mL in assay [3] is not below 80%.
In assay [1], `CCC(C)ON=Cc1ccc(CCOc2c(Cl)cc(OCC=C(Cl)Cl)cc2Cl)cc1` (centres unmarked) [(355), 4-(2-(2,6-dichloro-4-(3,3-dichloro-2-propenyloxy)phenoxy)ethyl)benzaldehyde O-sec-butyloxime] came in with a mortality at 100 µg/mL not below 80%.
Regarding `ClC(Cl)=CCON=Cc1ccc(OCCOc2c(Cl)cc(OCC=C(Cl)Cl)cc2Cl)cc1` [(281), 4-(2-(2,6-dichloro-4-(3,3-dichloro-2-propenyloxy)phenoxy)-ethoxy)benzaldehyde O-(3,3-dichloro-2-propenyl)oxime], the mortality at 50 µg/mL in assay [2] (setting [5]) is not below 80%.
In the case of `CC(CC(C)C)=NOCCCCCOc1c(Cl)cc(OCC=C(Cl)Cl)cc1Cl` [(564), 4-methyl-2-pentanone O-(5-(2,6-dichloro-4-(3,3-dichloro-2-propenyloxy)phenoxy)pentyl)oxime], the mortality at 100 µg/mL in assay [1] was not below 80%.
Turning to `CCCCC(=NO)c1cccc(OCCCOc2c(Cl)cc(OCC=C(Cl)Cl)cc2Cl)c1` [(336), 3′-(3-(2,6-dichloro-4-(3,3-dichloro-2-propenyloxy)phenoxy)propyloxy)valerophenone oxime], the mortality at 50 µg/mL in assay [2] (setting [5]) is not below 80%.
As to `C=CCON=Cc1ccc(OCCCOc2c(Cl)cc(OCC=C(Cl)Cl)cc2Cl)cc1` [(342), 4-(3-(2,6-dichloro-4-(3,3-dichloro-2-propenyloxy)phenoxy)propyloxy)benzaldehyde O-allyloxime], in assay [1], the mortality at 100 µg/mL is not below 80%.
As for `CC(=NO)c1ccc(OCCCCCOc2c(Cl)cc(OCC=C(Cl)Cl)cc2Cl)cc1` [(334), 4′-(5-(2,6-dichloro-4-(3,3-dichloro-2-propenyloxy)phenoxy)-pentyloxy)acetophenone oxime], the mortality at 50 µg/mL in assay [2] (setting [5]) is not below 80%.
The same measure, in the same setting: as for `ClC(Cl)=CCOc1cc(Cl)c(OCCCCON=C2CCOCC2)c(Cl)c1` [(573), tetrahydro-4H-pyran-4-one O-(4-(2,6-dichloro-4-(3,3-dichloro-2-propenyloxy)phenoxy)butyl)oxime], the figure is not below 80%.
Consider `ClC(Cl)=CCON=Cc1ccc(CCOc2c(Cl)cc(OCC=C(Cl)Cl)cc2Cl)cc1` [(358), 4-(2-(2,6-dichloro-4-(3,3-dichloro-2-propenyloxy)phenoxy)ethyl)benzaldehyde O-(3,3-dichloro-2-propenyl)oxime], for which the mortality at 100 µg/mL in assay [1] was not below 80%.
With `FC(F)(F)c1ccc(C=NOCCCOc2c(Cl)cc(OCC=C(Cl)Cl)cc2Cl)cc1` [(524), 4-(trifluoromethyl)benzaldehyde O-(3-(2,6-dichloro-4-(3,3-dichloro-2-propenyloxy)phenoxy)propyl)oxime], the mortality at 50 µg/mL in assay [2] (setting [5]) was not below 80%.
Compound `ClC(Cl)=CCOc1cc(Cl)c(OCCCC=NOCC=C(Br)Br)c(Cl)c1` [(25), 4-(2,6-dichloro-4-(3,3-dichloro-2-propenyloxy)phenoxy)butanal O-(3,3-dibromo-2-propenyl)oxime] displayed a mortality at 100 µg/mL in assay [3] not below 80%.
